Results reported in patent publication US9469652B2, “ERK inhibitors” (Eli Lilly and Company, priority 2014, dated 2016).

Experiments:
ERK2 = molecular target: T1, ERK2 (Homo sapiens, UniProt P28482); assay: ERK2 Kinase Assay (TR-FRET); format: biochemical; conditions: Abs_IC50, ATP 10 μM, GFP-ATF2 substrate; ±0.24, n=7
T1 construct: purchased Invitrogen PV3595B
Procedure: The purpose of this assay is to measure the ability of compounds to inhibit ERK2 kinase activity. Perform the ERK2 kinase assay in vitro using a TR-FRET assay. Start all reactions (12.5 μL) by adding 5 μL of ERK2 enzyme (Invitrogen, #PV3595B, final conc 50 ng/mL) plus substrate GFP-ATF2 (Invitrogen, #PV4445, final conc 0.2 μM), 5 μL of ATP solution (Invitrogen, #PV3227, final conc 10 μM) prepared in kinase buffer (50 mM Hepes pH 7.4, 5 mM MgCl2, 0.1 mM EGTA, 0.01% Triton X-100, 1 mM DTT) and 2.5 μL of testing compounds in DMSO solution (final 4%, v/v) in a 384-well PROXIPLATE™ (Perkin Elmer, #GRN6260). Incubate reactions at room temperature for 60 minutes. Stop reactions by addition of 12.5 μL of stop buffer (10 mM EDTA, 2 nM Tb-anti-pATF2 (pThr71) antibody, Invitrogen, #PV4448) in TR-FRET dilution buffer (Invitrogen, #PV3574). Incubate the plates at room temperature for an additional 60 minutes and read ON ENVISION® (PerkinElmer) plate reader at the excitation wavelength of 340 nm Calculate a TR-FRET ratio by dividing the GFP acceptor emission signal (at 520 nm) by the Tb donor emission signal (at 495 nm). Calculate percent inhibition using compound wells relative to on-plate Max (DMSO control) and Min (No enzyme added) control wells TR-FRET ratio data {% inhibition=100−[(test compound−median Min)/(median Max−median Min)×100]}. […]

[1] = tested on: human colorectal cancer cells HCT116; assay: Xenograft tumor model HCT116; format: in vivo, female athymic nude mice; conditions: oral gavage; for Delta T/C % or Regr %: negative = regression
Procedure: (§1) The purpose of this assay is to measure reduction in tumor volume in response to test compound administration. Expand human colorectal cancer cells HCT116 (ATCC, # CCL-247) in culture, harvest and inject 5×10e^6 cells in 200 μL of 1:1 HBSS+matrigel solution subcutaneously on to the rear right flank of female athymic nude mice (22-25 g, Harlan Laboratories). Expand human pancreatic cancer cells MIA PACA-2 (ATCC, # CRL-1420) or human non-small cell lung cancer cells CALU-6 (ATCC, #HTB-56) or human colorectal cancer cells COLO-205 (ATCC, #CCL-222) in culture, harvest and inject 5×10e^6 cells in 200 μL of 1:1 HBSS+matrigel solution subcutaneously on to the rear right flank of female athymic nude mice (22-25 g, Harlan Laboratories). Measure tumor growth and body weight twice per week beginning the seventh day after the implantation. When tumor sizes reach 200-400 mm^3, randomize animals and group into groups of eight to ten animals. Prepare test compound in an appropriate vehicle (vehicle: 1% HEC/0.25% Tween 80/0.05% Antifoam) and administer by oral gavage for 14 to 21 days. Tumor response is determined by tumor volume measurement performed twice a week during the course of treatment. Body weight is taken as a general measure of toxicity.
(§2) A compound within the scope of invention is tested in this assay run substantially as above.

[2] = tested on: human non-small cell lung cancer cells CALU-6; assay: Xenograft tumor model CALU-6; format: in vivo, female athymic nude mice; conditions: oral gavage; for Delta T/C % or Regr %: negative = regression
Procedure: as §1, §2

[3] = tested on: human non-small cell lung cancer cells A549 (KRAS_G12S); assay: In vivo combination study, A549 NSCLC xenograft model; parameters: species or system female CB-17 SCID mice; conditions: single agent
Procedure: (§3) More specifically, the compound of Example 1 is tested in combination with either the pan-RAF inhibitor compound or the CDK4/6 inhibitor compound in HCT116, a KRAS mutant colorectal cancer xenograft model. Also, the compound of Example 1 is tested in combination with either the CDK4/6 inhibitor compound or DC101 in NCI-H441, A549, and NCI-H2122, KRAS mutant non-small cell lung cancer (NSCLC) xenograft models.
(§4) Combination efficacy is also tested in three KRAS mutant NSCLC xenograft models including A549 (KRAS_G12S) in SCID mice as well as NCI-H441 (KRAS_G12V) and NCI-H2122 (KRAS_G12C) in athymic nude mice. Expand human non-small cell lung cancer cells NCI-H441 (ATCC, #CRL-5807) and NCI-H2122 (ATCC, #CRL-5985) in culture, harvest and inject 5×10e^6 cells in 200 μL of 1:1 HBSS+matrigel solution subcutaneously on to the rear right flank of female athymic nude mice (20-22 gm, Harlan Laboratories). Expand human non-small cell lung cancer cells A549 (ATCC, #CC1-185) in culture, harvest and inject 5×10e^6 cells in 200 μL of 1:1 HBSS+matrigel solution subcutaneously on to the rear right flank of female CB-17 SCID mice (18-20 gm, Taconic Farms). For all cell lines, measure tumor growth and body weight twice per week beginning the seventh day after the implantation. When average tumor sizes reach 200-300 mm^3, randomize animals and group into groups of five to seven animals. Prepare test compound in an appropriate vehicle (see below) and administer by oral gavage (compound of Example 1 and the CDK4/6 inhibitor compound) or intraperitoneally (DC101) for 21 to 28 days. Tumor response is determined by tumor volume measurement performed twice a week during the course of treatment. Vehicle used in these studies is 1% HEC/0.25% Tween® 80/0.05% Antifoam. The compound of Example 1 is formulated in 1% HEC/0.25% Tween® 80/0.05% Antifoam and the CDK4/6 inhibitor compound is formulated in 1% HEC in 25 mM sodium phosphate buffer, pH 2. […] In the same NCI-H441 xenograft model, DC101 in phosphate buffer is also administered intraperitoneally twice per week (BIW) as a single agent or in combination with the compound of Example 1, 50 mpk, QD for 28 days.

[4] = tested on: human non-small cell lung cancer cells NCI-H2122 (KRAS_G12C); assay: In vivo combination study, NCI-H2122 NSCLC xenograft model; parameters: species or system female athymic nude mice; conditions: single agent
Procedure: as §3, §4

T1 sequence (P28482 whole entry): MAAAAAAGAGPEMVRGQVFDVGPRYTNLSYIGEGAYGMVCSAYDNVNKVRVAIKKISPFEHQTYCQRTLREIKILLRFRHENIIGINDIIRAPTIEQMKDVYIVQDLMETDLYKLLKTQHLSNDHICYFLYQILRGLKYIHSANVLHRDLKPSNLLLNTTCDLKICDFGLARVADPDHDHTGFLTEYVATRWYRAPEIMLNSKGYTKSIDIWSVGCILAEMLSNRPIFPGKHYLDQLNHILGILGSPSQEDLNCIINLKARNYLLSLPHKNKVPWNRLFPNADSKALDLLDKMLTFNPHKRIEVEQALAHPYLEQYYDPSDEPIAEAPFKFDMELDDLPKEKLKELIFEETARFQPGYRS

With `Cn1nccc1Nc1nccc(-c2cc3c(s2)C(C)(C)N(CCN2CCOCC2)C3=O)n1` [Example 1, 6,6-Dimethyl-2-{2-[(1-methyl-1H-pyrazol-5-yl)amino]pyrimidin-4-yl}-5-[2-(morpholin-4-yl)ethyl]-5,6-dihydro-4H-thieno[2,3-c]pyrrol-4-one] the IC50 (ERK2) was 5.24 nM, the TGI % ([1]; 25 mg/kg QD) was 108% and the “Delta T/C % or Regr %” value ([1]; 25 mg/kg QD) was −8%. For the same compound, the TGI % ([1]; 50 mg/kg QD) was 89%, the “Delta T/C % or Regr %” value ([1]; 50 mg/kg QD) was 11% and the TGI % ([1]; 100 mg/kg QD) was 125%. The “Delta T/C % or Regr %” value ([1]; 100 mg/kg QD) was −25%, the TGI % ([2]; 12.5 mg/kg QD) was 78% and the “Delta T/C % or Regr %” value ([2]; 12.5 mg/kg QD) was 22%. For the same compound, the TGI % ([2]; 25 mg/kg QD) was 86%, the “Delta T/C % or Regr %” value ([2]; 25 mg/kg QD) was 14% and the TGI % ([2]; 50 mg/kg QD) was 131%. For the same compound, the “Delta T/C % or Regr %” value ([2]; 50 mg/kg QD) was −31%, the TGI % ([2]; 100 mg/kg QD) was 177% and the “Delta T/C % or Regr %” value ([2]; 100 mg/kg QD) was −77%. The “Delta T/C %” value ([3]; 50 mg/kg QD, oral, 28 days) was 9%, the tumor growth inhibition ([3]; 50 mpk) was 91% and the “Delta T/C %” value ([4]; 50 mg/kg QD, oral, 28 days) was 59%. The tumor growth inhibition ([4]; 50 mpk) was 41%.
